Experimental data published in the supplement of paper PMC10307832.

Experiments:
Test in all cases: relative viability (nuclei count vs DMSO), 5 days (fraction); higher = more cells survive
[1] = test system: BEN
Procedure, shortened: (§1)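 The day after seeding in 1536-well plates, lung cancer cell lines were treated by pin tool with a single drug, or with a fixed anchor-drug dose together with five library-drug doses (not always all listed) in √10 steps. After 5 days, a combined fix-and-stain solution (final 0.05% Triton X-100, 1% formaldehyde, 1 ug/ml Hoechst) was added. Nuclei counted on 4× images gave relative viability as treated counts over vehicle counts, reported as the median of duplicate plates.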

[2] = test system: COR-L 105
Procedure, shortened: as §1

[3] = test system: ChaGo-K-1
Procedure, shortened: as §1

[4] = test system: EKVX
Procedure, shortened: as §1

[5] = test system: EMC-BAC-2
Procedure, shortened: as §1

[6] = test system: EPLC-272H
Procedure, shortened: as §1

[7] = test system: HCC-78
Procedure, shortened: as §1

[8] = test system: HCC-827
Procedure, shortened: as §1

[9] = test system: LCLC-97TM1
Procedure, shortened: as §1

[10] = test system: LK-2
Procedure, shortened: as §1

[11] = test system: LOU-NH91
Procedure, shortened: as §1

[12] = test system: LU99A
Procedure, shortened: as §1

[13] = test system: NCI-H1650
Procedure, shortened: as §1

[14] = test system: NCI-H1734
Procedure, shortened: as §1

[15] = test system: NCI-H1944
Procedure, shortened: as §1

[16] = test system: NCI-H2087
Procedure, shortened: as §1

[17] = test system: NCI-H2126
Procedure, shortened: as §1

[18] = test system: NCI-H358
Procedure, shortened: as §1

[19] = test system: NCI-H727
Procedure, shortened: as §1

[20] = test system: RERF-LC-KJ
Procedure, shortened: as §1

[21] = test system: SK-MES-1
Procedure, shortened: as §1

[22] = test system: SW 1573
Procedure, shortened: as §1

## Cc1cnc(-c2cnc(NCCNc3ccc(C#N)cn3)nc2-c2ccc(Cl)cc2Cl)[nH]1 + Cc1cc(Nc2cc(N3CCN(C)CC3)nc(Sc3ccc(NC(=O)C4CC4)cc3)n2)n[nH]1 [Tozasertib] (partner 0.1 µM)
[1]; first compound 0.08 µM
  relative viability: 0.517
[1]; first compound 0.253 µM
  relative viability: 0.609
[1]; first compound 0.8 µM
  relative viability: 0.476
[1]; first compound 2.53 µM
  relative viability: 0.52
[2]; first compound 0.08 µM
  relative viability: 0.349
[2]; first compound 0.253 µM
  relative viability: 0.327
[2]; first compound 0.8 µM
  relative viability: 0.346
[2]; first compound 2.53 µM
  relative viability: 0.298
[3]; first compound 0.08 µM
  relative viability: 0.241
[3]; first compound 0.253 µM
  relative viability: 0.215
[3]; first compound 0.8 µM
  relative viability: 0.231
[3]; first compound 2.53 µM
  relative viability: 0.22
[4]; first compound 0.08 µM
  relative viability: 0.408
[4]; first compound 0.253 µM
  relative viability: 0.357
[4]; first compound 0.8 µM
  relative viability: 0.347
[4]; first compound 2.53 µM
  relative viability: 0.335
[5]; first compound 0.08 µM
  relative viability: 0.313
[5]; first compound 0.253 µM
  relative viability: 0.261
[5]; first compound 0.8 µM
  relative viability: 0.252
[5]; first compound 2.53 µM
  relative viability: 0.273
[6]; first compound 0.08 µM
  relative viability: 0.321
[6]; first compound 0.253 µM
  relative viability: 0.255
[6]; first compound 0.8 µM
  relative viability: 0.249
[6]; first compound 2.53 µM
  relative viability: 0.197
[7]; first compound 0.08 µM
  relative viability: 0.482
[7]; first compound 0.253 µM
  relative viability: 0.311
[7]; first compound 0.8 µM
  relative viability: 0.428
[7]; first compound 2.53 µM
  relative viability: 0.384
[8]; first compound 0.08 µM
  relative viability: 0.432
[8]; first compound 0.8 µM
  relative viability: 0.44
[8]; first compound 2.53 µM
  relative viability: 0.407
[9]; first compound 0.08 µM
  relative viability: 0.224
[9]; first compound 0.8 µM
  relative viability: 0.171
[9]; first compound 2.53 µM
  relative viability: 0.223
[10]; first compound 0.08 µM
  relative viability: 0.164
[10]; first compound 0.253 µM
  relative viability: 0.176
[10]; first compound 0.8 µM
  relative viability: 0.188
[10]; first compound 2.53 µM
  relative viability: 0.148
[11]; first compound 0.08 µM
  relative viability: 0.648
[11]; first compound 0.253 µM
  relative viability: 0.605
[11]; first compound 0.8 µM
  relative viability: 0.656
[11]; first compound 2.53 µM
  relative viability: 0.633
[12]; first compound 0.08 µM
  relative viability: 0.257
[12]; first compound 0.253 µM
  relative viability: 0.301
[12]; first compound 0.8 µM
  relative viability: 0.256
[12]; first compound 2.53 µM
  relative viability: 0.243
[13]; first compound 0.08 µM
  relative viability: 0.476
[13]; first compound 0.253 µM
  relative viability: 0.43
[13]; first compound 0.8 µM
  relative viability: 0.353
[13]; first compound 2.53 µM
  relative viability: 0.229
[14]; first compound 0.08 µM
  relative viability: 0.314
[14]; first compound 0.253 µM
  relative viability: 0.253
[14]; first compound 0.8 µM
  relative viability: 0.261
[14]; first compound 2.53 µM
  relative viability: 0.247
[15]; first compound 0.08 µM
  relative viability: 0.253
[15]; first compound 0.8 µM
  relative viability: 0.254
[15]; first compound 2.53 µM
  relative viability: 0.252
[16]; first compound 0.08 µM
  relative viability: 0.249
[16]; first compound 0.253 µM
  relative viability: 0.203
[16]; first compound 0.8 µM
  relative viability: 0.211
[16]; first compound 2.53 µM
  relative viability: 0.128
[17]; first compound 0.08 µM
  relative viability: 1.02
[17]; first compound 0.253 µM
  relative viability: 0.802
[17]; first compound 0.8 µM
  relative viability: 0.844
[17]; first compound 2.53 µM
  relative viability: 0.837
[18]; first compound 0.08 µM
  relative viability: 0.101
[18]; first compound 0.253 µM
  relative viability: 0.0983
[18]; first compound 0.8 µM
  relative viability: 0.137
[18]; first compound 2.53 µM
  relative viability: 0.11
[19]; first compound 0.08 µM
  relative viability: 0.639
[19]; first compound 0.253 µM
  relative viability: 0.497
[19]; first compound 0.8 µM
  relative viability: 0.603
[19]; first compound 2.53 µM
  relative viability: 0.422
[20]; first compound 0.08 µM
  relative viability: 0.544
[20]; first compound 0.253 µM
  relative viability: 0.436
[20]; first compound 0.8 µM
  relative viability: 0.367
[20]; first compound 2.53 µM
  relative viability: 0.382
[21]; first compound 0.08 µM
  relative viability: 0.964
[21]; first compound 0.253 µM
  relative viability: 0.854
[21]; first compound 0.8 µM
  relative viability: 0.999
[21]; first compound 2.53 µM
  relative viability: 0.861
[22]; first compound 0.08 µM
  relative viability: 0.177
[22]; first compound 0.253 µM
  relative viability: 0.138
[22]; first compound 0.8 µM
  relative viability: 0.302
[22]; first compound 2.53 µM
  relative viability: 0.156

## Cc1cnc(-c2cnc(NCCNc3ccc(C#N)cn3)nc2-c2ccc(Cl)cc2Cl)[nH]1 + O=C(CCCCCCC(=O)Nc1ccccc1)NO [Vorinostat] (partner 1 µM)
[1]; first compound 0.08 µM
  relative viability: 0.575
[1]; first compound 0.253 µM
  relative viability: 0.559
[1]; first compound 0.8 µM
  relative viability: 0.595
[1]; first compound 2.53 µM
  relative viability: 0.559
[2]; first compound 0.08 µM
  relative viability: 0.942
[2]; first compound 0.253 µM
  relative viability: 0.77
[2]; first compound 0.8 µM
  relative viability: 0.596
[2]; first compound 2.53 µM
  relative viability: 0.663
[3]; first compound 0.08 µM
  relative viability: 0.742
[3]; first compound 0.253 µM
  relative viability: 0.649
[3]; first compound 0.8 µM
  relative viability: 0.604
[3]; first compound 2.53 µM
  relative viability: 0.664
[4]; first compound 0.08 µM
  relative viability: 0.789
[4]; first compound 0.253 µM
  relative viability: 0.529
[4]; first compound 0.8 µM
  relative viability: 0.658
[4]; first compound 2.53 µM
  relative viability: 0.745
[5]; first compound 0.08 µM
  relative viability: 0.46
[5]; first compound 0.253 µM
  relative viability: 0.397
[5]; first compound 0.8 µM
  relative viability: 0.373
[5]; first compound 2.53 µM
  relative viability: 0.372
[6]; first compound 0.08 µM
  relative viability: 0.658
[6]; first compound 0.8 µM
  relative viability: 0.531
[6]; first compound 2.53 µM
  relative viability: 0.581
[7]; first compound 0.08 µM
  relative viability: 0.553
[7]; first compound 0.253 µM
  relative viability: 0.438
[7]; first compound 0.8 µM
  relative viability: 0.39
[7]; first compound 2.53 µM
  relative viability: 0.427
[8]; first compound 0.08 µM
  relative viability: 0.85
[8]; first compound 0.253 µM
  relative viability: 0.306
[8]; first compound 0.8 µM
  relative viability: 0.827
[8]; first compound 2.53 µM
  relative viability: 0.871
[9]; first compound 0.08 µM
  relative viability: 0.712
[9]; first compound 0.253 µM
  relative viability: 0.462
[9]; first compound 0.8 µM
  relative viability: 0.515
[9]; first compound 2.53 µM
  relative viability: 0.515
[10]; first compound 0.08 µM
  relative viability: 0.274
[10]; first compound 0.253 µM
  relative viability: 0.331
[10]; first compound 0.8 µM
  relative viability: 0.286
[10]; first compound 2.53 µM
  relative viability: 0.318
[11]; first compound 0.08 µM
  relative viability: 0.972
[11]; first compound 0.253 µM
  relative viability: 0.878
[11]; first compound 0.8 µM
  relative viability: 0.942
[11]; first compound 2.53 µM
  relative viability: 0.978
[12]; first compound 0.08 µM
  relative viability: 0.592
[12]; first compound 0.253 µM
  relative viability: 0.523
[12]; first compound 0.8 µM
  relative viability: 0.535
[12]; first compound 2.53 µM
  relative viability: 0.559
[13]; first compound 0.08 µM
  relative viability: 0.564
[13]; first compound 0.253 µM
  relative viability: 0.508
[13]; first compound 0.8 µM
  relative viability: 0.546
[13]; first compound 2.53 µM
  relative viability: 0.661
[14]; first compound 0.08 µM
  relative viability: 0.88
[14]; first compound 0.253 µM
  relative viability: 0.693
[14]; first compound 0.8 µM
  relative viability: 0.745
[14]; first compound 2.53 µM
  relative viability: 0.661
[15]; first compound 0.08 µM
  relative viability: 0.591
[15]; first compound 0.8 µM
  relative viability: 0.614
[15]; first compound 2.53 µM
  relative viability: 0.566
[16]; first compound 0.08 µM
  relative viability: 0.871
[16]; first compound 0.8 µM
  relative viability: 0.514
[16]; first compound 2.53 µM
  relative viability: 0.663
[17]; first compound 0.08 µM
  relative viability: 0.775
[17]; first compound 0.253 µM
  relative viability: 0.695
[17]; first compound 0.8 µM
  relative viability: 0.703
[17]; first compound 2.53 µM
  relative viability: 0.819
[18]; first compound 0.08 µM
  relative viability: 0.787
[18]; first compound 0.253 µM
  relative viability: 0.686
[18]; first compound 0.8 µM
  relative viability: 0.69
[18]; first compound 2.53 µM
  relative viability: 0.585
[19]; first compound 0.08 µM
  relative viability: 1.18
[19]; first compound 0.253 µM
  relative viability: 0.787
[19]; first compound 0.8 µM
  relative viability: 1.02
[19]; first compound 2.53 µM
  relative viability: 1.23
[20]; first compound 0.08 µM
  relative viability: 0.815
[20]; first compound 0.253 µM
  relative viability: 0.565
[20]; first compound 0.8 µM
  relative viability: 0.58
[20]; first compound 2.53 µM
  relative viability: 0.677
[21]; first compound 0.08 µM
  relative viability: 1.07
[21]; first compound 0.253 µM
  relative viability: 0.977
[21]; first compound 0.8 µM
  relative viability: 1.19
[21]; first compound 2.53 µM
  relative viability: 1.24
[22]; first compound 0.08 µM
  relative viability: 0.849
[22]; first compound 0.253 µM
  relative viability: 0.815
[22]; first compound 0.8 µM
  relative viability: 0.463
[22]; first compound 2.53 µM
  relative viability: 0.224
